Patent US11008314B2, “Compounds and methods for modulating interleukin-2-inducible t-cell kinase” (CORVUS PHARMACEUTICALS, INC., priority 2016, dated 2021)

Columns and labels:
Assay type in all cases: biochemical
TXK = TXK (Homo sapiens (Human), UniProt P42681); experiment: IC50 against TXK; details: for TXK/ITK: ratio of TXK IC50 to ITK IC50
BTK = BTK (Homo sapiens (Human), UniProt Q06187); experiment: IC50 against BTK
ITK = ITK (Homo sapiens (Human), UniProt Q08881); experiment: IC50 against ITK
ITK, sequence (Q08881 whole entry): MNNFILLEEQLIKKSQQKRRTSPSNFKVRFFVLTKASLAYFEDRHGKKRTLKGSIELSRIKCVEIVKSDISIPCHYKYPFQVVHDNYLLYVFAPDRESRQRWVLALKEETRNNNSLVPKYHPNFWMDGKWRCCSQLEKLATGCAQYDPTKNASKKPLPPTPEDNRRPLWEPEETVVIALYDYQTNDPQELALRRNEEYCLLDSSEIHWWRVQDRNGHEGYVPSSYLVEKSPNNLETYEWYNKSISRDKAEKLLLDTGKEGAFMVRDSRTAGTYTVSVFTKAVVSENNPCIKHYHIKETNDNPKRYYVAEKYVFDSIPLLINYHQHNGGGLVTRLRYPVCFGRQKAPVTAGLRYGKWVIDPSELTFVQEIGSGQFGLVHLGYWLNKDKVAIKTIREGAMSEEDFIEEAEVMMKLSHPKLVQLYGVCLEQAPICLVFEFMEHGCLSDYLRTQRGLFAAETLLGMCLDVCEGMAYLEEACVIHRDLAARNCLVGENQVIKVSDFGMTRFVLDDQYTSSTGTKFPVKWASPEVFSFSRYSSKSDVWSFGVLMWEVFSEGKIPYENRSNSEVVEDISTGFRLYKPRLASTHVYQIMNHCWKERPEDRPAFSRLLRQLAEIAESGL

JAK3 = JAK3 (Homo sapiens (Human), UniProt P52333); experiment: IC50 against JAK3
JAK3, sequence (P52333 whole entry, species assumed): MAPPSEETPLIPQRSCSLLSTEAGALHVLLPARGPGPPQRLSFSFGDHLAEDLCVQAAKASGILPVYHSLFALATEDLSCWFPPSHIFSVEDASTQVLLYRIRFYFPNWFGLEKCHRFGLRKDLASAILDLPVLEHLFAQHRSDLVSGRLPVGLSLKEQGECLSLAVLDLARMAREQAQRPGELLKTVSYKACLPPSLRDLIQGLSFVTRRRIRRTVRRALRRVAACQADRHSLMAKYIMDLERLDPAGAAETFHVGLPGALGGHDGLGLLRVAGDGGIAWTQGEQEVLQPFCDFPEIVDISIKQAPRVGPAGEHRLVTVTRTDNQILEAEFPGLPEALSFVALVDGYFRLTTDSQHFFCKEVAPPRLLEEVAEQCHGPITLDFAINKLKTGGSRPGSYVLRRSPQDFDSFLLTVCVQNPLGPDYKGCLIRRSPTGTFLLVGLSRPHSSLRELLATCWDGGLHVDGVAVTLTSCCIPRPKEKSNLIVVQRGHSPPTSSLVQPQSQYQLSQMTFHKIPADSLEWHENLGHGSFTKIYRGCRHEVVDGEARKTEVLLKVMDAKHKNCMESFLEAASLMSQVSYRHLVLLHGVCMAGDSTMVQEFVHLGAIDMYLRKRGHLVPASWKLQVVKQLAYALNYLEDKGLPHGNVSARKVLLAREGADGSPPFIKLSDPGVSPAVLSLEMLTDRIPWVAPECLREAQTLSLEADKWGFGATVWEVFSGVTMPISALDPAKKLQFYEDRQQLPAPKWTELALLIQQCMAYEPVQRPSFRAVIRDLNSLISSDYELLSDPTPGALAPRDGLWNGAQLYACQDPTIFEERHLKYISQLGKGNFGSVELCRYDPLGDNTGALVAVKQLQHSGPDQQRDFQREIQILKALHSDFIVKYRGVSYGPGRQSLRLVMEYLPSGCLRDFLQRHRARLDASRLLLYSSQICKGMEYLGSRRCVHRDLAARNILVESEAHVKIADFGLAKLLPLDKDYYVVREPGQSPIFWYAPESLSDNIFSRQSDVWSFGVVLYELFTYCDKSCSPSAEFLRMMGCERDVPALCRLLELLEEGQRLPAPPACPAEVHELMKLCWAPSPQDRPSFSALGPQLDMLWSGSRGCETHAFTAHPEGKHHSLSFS

TXK, sequence (P42681 whole entry, species assumed): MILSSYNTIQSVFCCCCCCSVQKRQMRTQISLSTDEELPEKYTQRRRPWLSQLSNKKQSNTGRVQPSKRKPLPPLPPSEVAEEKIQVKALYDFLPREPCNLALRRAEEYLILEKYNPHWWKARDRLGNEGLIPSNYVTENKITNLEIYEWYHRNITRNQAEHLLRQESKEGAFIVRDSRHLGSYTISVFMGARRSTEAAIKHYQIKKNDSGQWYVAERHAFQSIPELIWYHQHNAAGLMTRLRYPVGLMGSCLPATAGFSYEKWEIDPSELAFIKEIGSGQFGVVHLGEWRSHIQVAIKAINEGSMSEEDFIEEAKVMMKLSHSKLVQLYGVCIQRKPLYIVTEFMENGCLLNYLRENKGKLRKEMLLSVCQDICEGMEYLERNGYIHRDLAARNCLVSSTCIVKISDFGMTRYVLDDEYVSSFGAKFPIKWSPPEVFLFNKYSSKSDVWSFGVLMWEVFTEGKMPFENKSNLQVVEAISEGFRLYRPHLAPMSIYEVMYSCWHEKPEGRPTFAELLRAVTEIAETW
BTK, sequence (Q06187 whole entry, species assumed): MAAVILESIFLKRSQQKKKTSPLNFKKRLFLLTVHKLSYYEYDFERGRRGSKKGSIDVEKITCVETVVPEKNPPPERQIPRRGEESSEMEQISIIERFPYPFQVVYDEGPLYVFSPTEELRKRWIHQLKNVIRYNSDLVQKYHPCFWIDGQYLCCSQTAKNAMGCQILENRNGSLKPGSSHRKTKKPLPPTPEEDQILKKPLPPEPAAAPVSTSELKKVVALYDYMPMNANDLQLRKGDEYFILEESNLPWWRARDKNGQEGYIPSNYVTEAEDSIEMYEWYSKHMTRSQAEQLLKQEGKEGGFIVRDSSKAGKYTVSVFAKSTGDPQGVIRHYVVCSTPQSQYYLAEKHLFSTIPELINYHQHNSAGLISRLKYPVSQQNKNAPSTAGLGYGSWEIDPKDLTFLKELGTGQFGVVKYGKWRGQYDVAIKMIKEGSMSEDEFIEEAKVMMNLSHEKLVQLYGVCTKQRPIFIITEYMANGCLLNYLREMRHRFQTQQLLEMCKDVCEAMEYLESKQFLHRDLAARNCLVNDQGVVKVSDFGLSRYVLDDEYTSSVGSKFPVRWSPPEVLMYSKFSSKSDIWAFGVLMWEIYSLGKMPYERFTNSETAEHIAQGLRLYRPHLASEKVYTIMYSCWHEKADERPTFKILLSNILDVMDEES

IC50 (TXK) [nM] | TXK/ITK (TXK) | IC50 (BTK) [nM] | IC50 (ITK) [nM] | IC50 (JAK3) [nM] | SMILES
1000 to 10000 | 227.64 | ≥ 10000 | 10 to 100 | ≥ 10000 | C=CC(=O)N1CCCN(C(=O)c2cc(Sc3cnc(NC(=O)C4CCC4)s3)c(C)cc2OC)C[C@H]1C [Compound 86]
100 to 1000 | 74.161 | 100 to 1000 | < 10 | 1000 to 10000 | C=CC(=O)N1CCN(C(=O)c2cc(Sc3cnc(NC(=O)c4ccncc4)s3)c(C)cc2OC)CC1 [Compound 87]
≥ 10000 | 30.436 | ≥ 10000 | 100 to 1000 | ≥ 10000 | C=C(CN(C)C)C(=O)N1CCCN(C(=O)c2cc(Sc3cnc(NC(=O)C4CC4)s3)c(C)cc2OC)C[C@H]1C [Compound 88]
100 to 1000 | 45.743 | 100 to 1000 | < 10 | 1000 to 10000 | C=CC(=O)N1CCN(C(=O)c2cc(Sc3cnc(NC(=O)c4cccnc4)s3)c(C)cc2OC)CC1 [Compound 89]
10 to 100 | 20.093 | 10 to 100 | < 10 | 100 to 1000 | C=CC(=O)N1CCN(C(=O)c2cc(Sc3cnc(NC(=O)c4cnn(C)c4)s3)c(C)cc2OC)CC1 [Compound 91]
100 to 1000 | 19.123 | 100 to 1000 | < 10 | 100 to 1000 | C=CC(=O)N1CCN(C(=O)c2cc(Sc3cnc(NC(=O)c4cocn4)s3)c(C)cc2OC)CC1 [Compound 92]
100 to 1000 | 252.91 | 1000 to 10000 | < 10 | ≥ 10000 | C=CC(=O)N1CCCN(C(=O)c2cc(Sc3cnc(NC(=O)c4cnsc4)s3)c(C)cc2OC)C[C@H]1C [Compound 93]
≥ 10000 | 61.81 | ≥ 10000 | 100 to 1000 | ≥ 10000 | COc1cc(C)c(Sc2cnc(NC(=O)C3CC3)s2)cc1C(=O)N1CCCN(C(=O)/C=C/CN(C)C)[C@H](C)C1 [Compound 94]
100 to 1000 | 14.201 | 100 to 1000 | 10 to 100 | 1000 to 10000 | C=CC(=O)N1CCN(C(=O)c2cc(Sc3cnc(NC(=O)c4ccccn4)s3)c(C)cc2OC)CC1 [Compound 95]
10 to 100 | 11.966 | 100 to 1000 | < 10 | 100 to 1000 | C=CC(=O)N1CCN(C(=O)c2cc(Sc3cnc(NC(=O)c4nccn4C)s3)c(C)cc2OC)CC1 [Compound 96]
100 to 1000 | 12.995 | 100 to 1000 | < 10 | 1000 to 10000 | C=CC(=O)N1CCN(C(=O)c2cc(Sc3cnc(NC(=O)c4cn(C)cn4)s3)c(C)cc2OC)CC1 [Compound 97]
< 10 | 8.2157 | < 10 | < 10 | 10 to 100 | C=CC(=O)N1CCN(C(=O)c2cc(Sc3cnc(Nc4ccccn4)s3)c(C)cc2OC)CC1 [Compound 98]
10 to 100 | 4.279 | 1000 to 10000 | 10 to 100 | 100 to 1000 | C=CC(=O)N1CCN(C(=O)c2cc(Sc3cnc(NC(=O)C4CC4)s3)c(C)cc2Cl)C[C@H]1CC [Compound 99]
10 to 100 | 8.8107 | 1000 to 10000 | < 10 | 100 to 1000 | C=CC(=O)N1CCN(C(=O)c2cc(Sc3cnc(NC(=O)C4CC4)s3)c(C)cc2C)C[C@H]1CC [Compound 100]
100 to 1000 | 14.4 | ≥ 10000 | 10 to 100 | 100 to 1000 | C=CC(=O)N1CCN(C(=O)c2cc(Sc3cnc(NC(=O)C4CC4)s3)c(Cl)cc2C)C[C@H]1CC [Compound 101]
10 to 100 | 32.9 | 10 to 100 | < 10 | 100 to 1000 | C=CC(=O)N1CCN(C(=O)c2cc(Sc3cnc(NC(=O)c4cnn(CCN(C)C)c4)s3)c(C)cc2OC)CC1 [Compound 102]
10 to 100 | 47.6 | 100 to 1000 | < 10 | 100 to 1000 | C=CC(=O)N1CCCN(C(=O)c2cc(Sc3cnc(Nc4ccccn4)s3)c(C)cc2OC)C[C@H]1C [Compound 103]
10 to 100 | 3.6 | 100 to 1000 | < 10 | 100 to 1000 | C=CC(=O)N1CCN(C(=O)c2cc(Sc3cnc(NC(=O)C4CC4)s3)c(C)cc2CC)C[C@H]1CC [Compound 104]
100 to 1000 | 12.3 | 100 to 1000 | < 10 | 1000 to 10000 | C=CC(=O)N1CCCN(C(=O)c2cc(Sc3cnc(NC(=O)C4CC4)s3)c(C)cc2CC)C[C@H]1C [Compound 105]
< 10 | 2.9 | 10 to 100 | < 10 | 10 to 100 | C=CC(=O)N1CCN(C(=O)c2cc(Sc3cnc(NC(=O)C4CC4)s3)c(C)cc2CC)CC1 [Compound 106]

IC50 (TXK) [nM] | TXK/ITK (TXK) | IC50 (BTK) [nM] | IC50 (ITK) [nM] | IC50 (JAK3) [nM] | SMILES
10 to 100 | 61.8 | 100 to 1000 | < 10 | 100 to 1000 | C=CC(=O)N1CCN(C(=O)c2cc(Sc3cnc(NC(=O)c4cccc(CN(C)C)c4)s3)c(C)cc2C)CC1 [Compound 107]
10 to 100 | 12.1 | 100 to 1000 | < 10 | 100 to 1000 | C=CC(=O)N1CCN(C(=O)c2cc(Sc3cnc(NC(=O)c4cnn(C)c4)s3)c(C)cc2C)CC1 [Compound 108]
10 to 100 | 13.5 | 10 to 100 | < 10 | 10 to 100 | C=CC(=O)N1CCN(C(=O)c2cc(Sc3cnc(NC(=O)c4ccsc4)s3)c(C)cc2C)CC1 [Compound 109]
≥ 10000 | 46.6 | ≥ 10000 | 100 to 1000 | 1000 to 10000 | C=CC(=O)N1CCCN(C(=O)c2cc(Sc3cnc(NC(=O)N(C)C)s3)c(C)cc2OC)C[C@H]1C [Compound 110]
100 to 1000 | 81.1 | 100 to 1000 | < 10 | 1000 to 10000 | C=CC(=O)N1CCCN(C(=O)c2cc(Sc3cnc(NC(=O)C4CC4)s3)c(C)cc2OC)C[C@H]1CC [Compound 111]
100 to 1000 | 118.0 | 100 to 1000 | < 10 | 1000 to 10000 | C=CC(=O)N1CCCN(C(=O)c2cc(Sc3cnc(NC(=O)C4CC4)s3)c(C)cc2C)C[C@H]1CC [Compound 112]
10 to 100 | 12.1 | 10 to 100 | < 10 | 100 to 1000 | C=CC(=O)N1CCN(C(=O)c2cc(Sc3cnc(NC(=O)c4ccsc4)s3)c(C)cc2OC)C[C@H]1CC [Compound 113]
10 to 100 | 30.1 | 100 to 1000 | < 10 | 1000 to 10000 | C=CC(=O)N1CCN(C(=O)c2cc(Sc3cnc(NC(=O)c4cnsc4)s3)c(C)cc2OC)C[C@H]1CC [Compound 114]
10 to 100 | 9.8 | 100 to 1000 | < 10 | 1000 to 10000 | C=CC(=O)N1CCN(C(=O)c2cc(Sc3cnc(NC(=O)c4cnn(C)c4)s3)c(C)cc2OC)C[C@H]1CC [Compound 115]
10 to 100 | 23.3 | 100 to 1000 | < 10 | 1000 to 10000 | C=CC(=O)N1CCN(C(=O)c2cc(Sc3cnc(NC(=O)c4cnn(CCN(C)C)c4)s3)c(C)cc2OC)C[C@H]1CC [Compound 116]
10 to 100 | 65.5 | 100 to 1000 | < 10 | 1000 to 10000 | C=CC(=O)N1CCN(C(=O)c2cc(Sc3cnc(NC(=O)c4cccc(CN(C)C)c4)s3)c(C)cc2OC)C[C@H]1CC [Compound 117]
< 10 |  | < 10 | ≥ 10000 | < 10 | C=CC(=O)N1CCN(C(=O)c2cc(Sc3cnc(NC(=O)C4CC4)s3)c(C)cc2C)C[C@H]1C#N [Compound 118]
< 10 | 3.2 | 10 to 100 | < 10 | < 10 | C=CC(=O)N1CCN(C(=O)c2cc(Sc3cnc(NC(C)=O)s3)c(C)cc2C)C[C@H]1C#N [Compound 119]
100 to 1000 | 66.4 | 100 to 1000 | < 10 | 1000 to 10000 | C=CC(=O)N1CCCN(C(=O)c2cc(Sc3cnc(NC(=O)c4ccsc4)s3)c(C)cc2OC)C[C@H]1CC [Compound 120]
100 to 1000 | 146.1 | 100 to 1000 | < 10 | 1000 to 10000 | C=CC(=O)N1CCCN(C(=O)c2cc(Sc3cnc(NC(=O)c4cnsc4)s3)c(C)cc2OC)C[C@H]1CC [Compound 121]
100 to 1000 | 118.5 | 100 to 1000 | < 10 | 100 to 1000 | C=CC(=O)N1CCCN(C(=O)c2cc(Sc3cnc(NC(=O)c4ccsc4)s3)c(C)cc2C)C[C@H]1CC [Compound 122]
100 to 1000 | 144.0 | 100 to 1000 | < 10 | 1000 to 10000 | C=CC(=O)N1CCCN(C(=O)c2cc(Sc3cnc(NC(=O)c4cnsc4)s3)c(C)cc2C)C[C@H]1CC [Compound 123]
< 10 |  | < 10 | < 10 | < 10 | C=CC(=O)N1CCN(C(=O)c2cc(Sc3cnc(NC(=O)c4cccc(CN(C)C)c4)s3)c(C)cc2OC)C[C@H]1C#N [Compound 124]
< 10 | 2.3 | 10 to 100 | < 10 | < 10 | C=CC(=O)N1CCN(C(=O)c2cc(Sc3cnc(NC(=O)c4cccc(CN(C)C)c4)s3)c(C)cc2C)C[C@H]1C#N [Compound 125]
10 to 100 | 13.5 | 10 to 100 | < 10 | 10 to 100 | C=CC(=O)N1CCN(C(=O)c2cc(Sc3cnc(Nc4ccccn4)s3)c(Cl)cc2C)CC1 [Compound 126]
